Laboratory results taken from patent US12012410B2, “Substituted pyrazolo[1,5-a]pyrazines for spinal muscular atrophy” (REBORNA BIOSCIENCES, INC., priority 2018, dated 2024).

System: FL-SMN mRNA (SMN transcript containing exons 7 and 8)
Assay: Live-cell assay to measure changes in FL-SMN mRNA levels (qPCR) after exposure to the compounds
Type: cell-based, human
Conditions: fibroblasts derived from patients SMA (GM03813); 24 hours incubation
Outline: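 SMA patient fibroblasts (GM03813) in DMEM/10% FBS were treated with compound (0.1% DMSO final) for 24 h. FL-SMN and Δ7 mRNA were measured by RT-qPCR against oligo DNA standard curves and normalised to GAPDH. Values are % of the DMSO control, binned by asterisk from ≥100% to ≥180%.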

Structure (SMILES) | Percentage of increase (FL-SMN mRNA standardized against GAPDH, DMSO control set as 100%)
CCN1CCC(F)(c2nc3c(F)cc(-c4cc(F)c5nc(C)cn5c4)cc3c(=O)[nH]2)CC1 [Example 98, 2-(1-ethyl-4-fluoropiperidin-4-yl)-8-fluoro-6-(8-fluoro-2-methylimidazo[1,2-a]pyridin-6-yl)quinazolin-4(3H)-one] | **** (equal to or higher than 180%)
Cc1cn2cc(-c3cc(F)c4nc(C5(F)CCN(C(C)C)CC5)[nH]c(=O)c4c3)cc(F)c2n1 [Example 99, 8-fluoro-2-(4-fluoro-1-isopropylpiperidin-4-yl)-6-(8-fluoro-2-methylimidazo[1,2-a]pyridin-6-yl)quinazolin-4(3H)-one] | **** (equal to or higher than 180%)
CCN1CCC(F)(c2nc3c(C)cc(-c4cc(F)c5nc(C)cn5c4)nc3c(=O)[nH]2)CC1 [Example 100, 2-(1-ethyl-4-fluoropiperidin-4-yl)-6-(8-fluoro-2-methylimidazo[1,2-a]pyridin-6-yl)-8-methylpyrido[3,2-d]pyrimidin-4(3H)-one] | **** (equal to or higher than 180%)
Cc1cn2cc(-c3cc(C)c4nc(C5(F)CCN(C(C)C)CC5)[nH]c(=O)c4n3)cc(F)c2n1 [Example 101, 2-(4-fluoro-1-isopropylpiperidin-4-yl)-6-(8-fluoro-2-methylimidazo[1,2-a]pyridin-6-yl)-8-methylpyrido[3,2-d]pyrimidin-4(3H)-one] | *** (equal to or higher than 150% but lower than 180%)
Cc1cn2cc(-c3ccc4nc(C5(F)CCN(C6CC6)CC5)[nH]c(=O)c4n3)cc(F)c2n1 [Example 102, 2-(1-cyclopropyl-4-fluoropiperidin-4-yl)-6-(8-fluoro-2-methylimidazo[1,2-a]pyridin-6-yl)pyrido[3,2-d]pyrimidin-4(3H)-one] | ** (equal to or higher than 120% but lower than 150%)
Cc1cn2cc(-c3cc(C)c4nc(C5(F)CCN(C6CC6)CC5)[nH]c(=O)c4c3)cnc2n1 [Example 103, 2-(1-cyclopropyl-4-fluoropiperidin-4-yl)-6-(2-methylimidazo[1,2-a]pyrimidin-6-yl)-8-methylquinazolin-4(3H4)-one] | ** (equal to or higher than 120% but lower than 150%)
Cc1cn2cc(-c3cc4c(=O)[nH]c(C5(F)CCN(C6CC6)CC5)nc4cn3)cc(F)c2n1 [Example 104, 2-(1-cyclopropyl-4-fluoropiperidin-4-yl)-6-(8-fluoro-2-methylimidazo[1,2-a]pyridin-6-yl)pyrido[3,4-d]pyrimidin-4(3H)-one] | *** (equal to or higher than 150% but lower than 180%)
Cc1nc2c(F)cc(-c3ccc4nc(C5CCN(C6CC6)CC5)[nH]c(=O)c4n3)cc2o1 [Example 106, 2-(1-cyclopropylpiperidin-4-yl)-6-(4-fluoro-2-methyl-1,3-benzoxazol-6-yl)pyrido[3,2-d]pyrimidin-4(3H)-one] | ** (equal to or higher than 120% but lower than 150%)
Cc1nc2c(F)cc(-c3cc4c(=O)[nH]c(C5(F)CCN(C6CC6)CC5)nc4cn3)cc2o1 [Example 107, 2-(1-cyclopropyl-4-fluoropiperidin-4-yl)-6-(4-fluoro-2-methyl-1,3-benzoxazol-6-yl)pyrido[3,4-d]pyrimidin-4(3H)-one] | ** (equal to or higher than 120% but lower than 150%)
Cc1cn2cc(-c3cc4c(=O)[nH]c(C5(F)CCN(C)CC5)nc4cn3)cc(F)c2n1 [Example 108, 2-(4-fluoro-1-methylpiperidin-4-yl)-6-(8-fluoro-2-methylimidazo[1,2-a]pyridin-6-yl)pyrido[3,4-d]pyrimidin-4(3H)-one] | ** (equal to or higher than 120% but lower than 150%)
CCN1CCC(F)(c2nc3cnc(-c4cc(F)c5nc(C)cn5c4)cc3c(=O)[nH]2)CC1 [Example 109, 2-(1-ethyl-4-fluoropiperidin-4-yl)-6-(8-fluoro-2-methylimidazo[1,2-a]pyridin-6-yl)pyrido[3,4-d]pyrimidin-4(3H)-one] | *** (equal to or higher than 150% but lower than 180%)
COCCN1CCC(F)(c2nc3ccc(-c4cc(F)c5nc(C)cn5c4)cc3c(=O)[nH]2)CC1 [Example 110, 2-[4-fluoro-1-(2-methoxyethyl)piperidin-4-yl]-6-(8-fluoro-2-methylimidazo[1,2-a]pyridin-6-yl)quinazolin-4(3H)-one] | ** (equal to or higher than 120% but lower than 150%)
Cc1nc2c(F)cc(-c3cc4c(=O)[nH]c(C5(F)CCNCC5)nc4cn3)cc2o1 [Example 111, 6-(4-fluoro-2-methy-1,3-benzoxazol-6-yl)-2-(4-fluoropiperidin-4-yl)pyrido[3,4-d]pyrimidin-4(3H)-one] | **** (equal to or higher than 180%)
COCCN1CCC(c2nc3cnc(-c4cc(F)c5nc(C)cn5c4)cc3c(=O)[nH]2)CC1 [Example 112, 6-(8-fluoro-2-methylimidazo[1,2-a]pyridin-6-yl)-2-[1-(2-methoxyethyl)piperidin-4-yl]pyrido[3,4-d]pyrimidin-4(3H)-one] | **** (equal to or higher than 180%)
COCCN1CCC(c2nc3cnc(-c4cc(F)c5nc(C)oc5c4)cc3c(=O)[nH]2)CC1 [Example 113, 6-(4-fluoro-2-methyl-1,3-benzoxazol-6-yl)-2-[1-(2-methoxyethyl)piperidin-4-yl]pyrido[3,4-d]pyrimidin-4(3H)-one] | **** (equal to or higher than 180%)
Cc1cn2cc(-c3cc4c(=O)[nH]c(C5CCN(C6CC6)CC5)nc4cn3)cc(F)c2n1 [Example 114, 2-(1-cyclopropylpiperidin-4-yl)-6-(8-fluoro-2-methylimidazo[1,2-a]pyridin-6-yl)pyrido[3,4-d]pyrimidin-4(3H)-one] | **** (equal to or higher than 180%)
Cc1nc2c(F)cc(-c3cc4c(=O)[nH]c(C5CCN(C6CC6)CC5)nc4cn3)cc2o1 [Example 115, 2-(1-cyclopropylpiperidin-4-yl)-6-(4-fluoro-2-methyl-1,3-benzoxazol-6-yl)pyrido[3,4-d]pyrimidin-4(3H)-one] | **** (equal to or higher than 180%)
Cc1cn2nc(-c3nc4ccc(N5CCN(C6CC6)CC5)cc4c(=O)[nH]3)cc2cn1 [Example 116, 6-(4-cyclopropylpiperazin-1-yl)-2-(6-methylpyrazolo[1,5-a]pyrazin-2-yl)quinazolin-4(3H)-one] | **** (equal to or higher than 180%)
Cc1cc2nc(-c3nc4ccc(N5CCN(C6CC6)CC5)cc4c(=O)[nH]3)cn2c(C)n1 [Example 117, 6-(4-cyclopropylpiperazin-1-yl)-2-(5,7-dimethylimidazo[1,2-c]pyrimidin-2-yl)quinazolin-4(3H)-one] | **** (equal to or higher than 180%)
